Where “and” joins values, the source holds several entries; their conditions need not be identical. Identical values can stand only once.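 Five compound concentrations were applied to cells in 96-well plates for 48 hours; endpoints were derived by simple linear interpolation of the resulting dose-response curve. GI50 marks 50% less growth. TGI: total growth inhibition.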
What was measured:
Test in all cases: DTP human tumour cell line panel, 48 h
HCT-116 colon = system: HCT-116 colon
M14 melanoma = system: M14 melanoma
MCF7 breast = system: MCF7 breast
MDA-MB-231 breast = system: MDA-MB-231 breast
NCI-H226 lung = system: NCI-H226 lung
NCI-H460 lung = system: NCI-H460 lung
OVCAR-8 ovarian = system: OVCAR-8 ovarian
PC-3 prostate = system: PC-3 prostate
SF-268 CNS = system: SF-268 CNS
UO-31 renal = system: UO-31 renal

Structure (SMILES)	GI50 (HCT-116 colon)	TGI (HCT-116 colon)	GI50 (M14 melanoma)	TGI (M14 melanoma)	GI50 (MCF7 breast)	TGI (MCF7 breast)	GI50 (MDA-MB-231 breast)	TGI (MDA-MB-231 breast)	GI50 (NCI-H226 lung)	TGI (NCI-H226 lung)	GI50 (NCI-H460 lung)	TGI (NCI-H460 lung)	GI50 (OVCAR-8 ovarian)	TGI (OVCAR-8 ovarian)	GI50 (PC-3 prostate)	TGI (PC-3 prostate)	GI50 (SF-268 CNS)	TGI (SF-268 CNS)	GI50 (UO-31 renal)	TGI (UO-31 renal)
Oc1c(-c2nnc(-c3ccccc3Cl)o2)sc2nnc(-c3ccccc3)c(-c3ccccc3)c12	2.92 µM	11.4 µM	5 µM	39.3 µM	3.84 µM	> 100 µM	4.08 µM	40.1 µM	16.1 µM	> 100 µM	1.73 µM	15.3 µM	3.72 µM	> 100 µM	3.15 µM	> 100 µM	6.27 µM	> 100 µM	2.38 µM	8.4 µM
C=C(C)[C@@H]1CC[C@]2(C)CC[C@]3(C)[C@H](CC[C@@H]4[C@@]5(C)CC[C@H](O)C(C)(C)[C@@H]5CC[C@]43C)[C@@H]12		> 100 µM		> 100 µM		55.2 µM		> 100 µM		> 86.5 µM		> 100 µM		> 64.2 µM		98.4 µM		> 100 µM		> 72.1 µM
C=C1C(=O)O[C@H]2[C@H]1CC/C(CNC(=O)/C=C/c1cc(OC)c(OC)c(OC)c1)=C\CC[C@@]1(C)O[C@@H]21	0.76 µM	2.1 µM	1.21 µM	2.87 µM	0.531 µM	10.8 µM	3.01 µM	14.1 µM	7.72 µM	28.7 µM	9.19 µM	24.5 µM	4.09 µM	16.1 µM	6.24 µM	20 µM	3.59 µM	15.6 µM	1.55 µM	4.08 µM
O.O.[NH-]C1(C(=O)O)CCCC1.[NH-]C1(C(=O)O)CCCC1.[Ni+2]		> 100 µM	96.7 µM	> 100 µM		> 100 µM	> 100 µM	> 100 µM		> 100 µM		> 100 µM		> 100 µM	> 100 µM	> 100 µM		> 100 µM		> 100 µM
COc1ncnc2c(-c3ccccc3)cn(COCc3ccccc3)c12	2.67 µM	23 µM	2.66 µM	7.07 µM	2.53 µM	9.32 µM	4.04 µM	> 100 µM	2.03 µM	8.12 µM	3.54 µM	23 µM	3.02 µM	11.7 µM	2.72 µM	> 100 µM	4.25 µM	> 100 µM	2.58 µM	12 µM
COc1cccc(N2CCN(CC(=O)N3CCN(c4nnc(-c5ccc(Cl)cc5)c(-c5ccc(Cl)cc5)n4)CC3)CC2)c1	5.98 µM	> 100 µM	30.2 µM	> 100 µM	5.14 µM	61.3 µM	34.2 µM	> 100 µM	88.3 µM	> 100 µM	24.5 µM	> 100 µM	29.4 µM	> 100 µM	16.6 µM	> 100 µM	> 100 µM	> 100 µM	3.63 µM	> 100 µM
CC[C@@H]1c2c(C#N)ncn2-c2cnc(Nc3ccc(C(=O)NC4CCN(C5CCN(CC6CC6)CC5)CC4)cc3OC)nc2N1C1CCCC1	0.0313 µM	1.19 µM	0.0316 µM	1.35 µM	0.00514 µM	1.2 µM	0.0631 µM and 0.0382 µM	1.31 µM and 0.219 µM	1.31 µM	2.64 µM	0.0354 µM	1.28 µM			0.0438 µM	2.08 µM	0.0642 µM	1.77 µM	1.36 µM	2.69 µM
CSC(=Nc1nnc(-c2ccc([N+](=O)[O-])cc2)s1)SC		> 83.7 µM		> 100 µM		> 100 µM		> 100 µM		> 100 µM		> 100 µM		> 100 µM		> 100 µM		68 µM		71.5 µM
ClCc1cccc2c(CCl)cccc12	4.18 µM	19.1 µM	5.95 µM	23.4 µM	0.871 µM	7.54 µM	13 µM	39 µM	12 µM	30.6 µM	0.767 µM	2.65 µM	4.29 µM	33.6 µM	4.21 µM	19.7 µM	2.95 µM	15 µM	2.2 µM	8.87 µM
CN(CCO)CC[C@H](CSc1ccccc1)Nc1ccc(S(=O)(=O)NC(=O)c2ccc(N3CCC([C@@H](O)c4ccccc4-c4ccc(Cl)cc4)CC3)cc2)cc1S(=O)(=O)C(F)(F)F	2.26 µM	6.8 µM	3.51 µM	20.2 µM	2.97 µM	12.2 µM	0.235 µM	0.936 µM	2.5 µM	7.46 µM	4.74 µM	19.9 µM	11.5 µM	> 100 µM	2.51 µM	9.05 µM	3.92 µM	> 46 µM	> 100 µM	> 100 µM
O=C1C(Cl)=C(Nc2cccc(F)c2)C(=O)N1Cc1ccc(Cl)cc1	0.392 µM	2.7 µM	1.2 µM	4.35 µM	1.06 µM	7.91 µM	0.242 µM	4.7 µM	0.188 µM	0.852 µM	1.08 µM		0.759 µM	8.83 µM	0.526 µM	4.53 µM	1.43 µM	8.07 µM	3.69 µM	35.9 µM
COC(=O)c1ccc(-c2nc3cc(Cl)c(Cl)cc3nc2C#N)cc1	> 100 µM	> 100 µM	> 100 µM	> 100 µM	> 100 µM	> 100 µM	> 100 µM	> 100 µM	> 100 µM	> 100 µM	> 100 µM	> 100 µM	> 100 µM	> 100 µM	> 100 µM	> 100 µM	> 100 µM	> 100 µM	> 100 µM	> 100 µM
O=C(c1ccccc1)c1ccccc1-c1ccccc1	3.17 µM	30.1 µM	1.75 µM	13 µM	2.97 µM	> 100 µM	5.14 µM	> 100 µM	19.6 µM	> 100 µM	3.35 µM	18.2 µM	4.77 µM	52.4 µM	3.67 µM	> 100 µM	6.55 µM	> 100 µM	6.99 µM	98.1 µM
COc1ccc2[nH]cc(-c3ccc(-c4c[nH]c5ccc(OC)cc45)s3)c2c1	3.62 µM	11.7 µM	6.36 µM	18.4 µM	4.72 µM	27 µM	2.88 µM	8.55 µM	8.95 µM	> 42.9 µM	2.88 µM	9.32 µM	5.86 µM	> 49.9 µM	3.08 µM	9.77 µM	8.11 µM	31.7 µM	2.9 µM	13.5 µM
C[C@]12C[C@H](CCCCCCNCCOC(=O)NCCCc3ccc(N(CCCl)CCCl)cc3)C3=C4CCC(=O)C=C4CCC3C1CC[C@@H]2O (stereo partly specified)	2.34 µM		2.9 µM	7.29 µM	0.3 µM	3.05 µM	2.01 µM	3.44 µM	2.15 µM	4.15 µM	0.672 µM	4.08 µM			1.17 µM		1.2 µM	3.86 µM	1.27 µM	2.98 µM
O=C(O)CN(CC(=O)O)Cc1cc(C#Cc2ccc(C#Cc3ccccc3)cc2)cc(CN(CC(=O)O)CC(=O)O)n1		39.9 µM		> 76.6 µM		41.8 µM		43 µM		58.7 µM		66.2 µM		> 60.6 µM		60.9 µM		> 85.4 µM		> 79.7 µM
CCCCCCCCNc1cc2c3c(c1)CCCN3CCC2	1.11 µM	7.92 µM	2.5 µM	13.6 µM	2.98 µM	13 µM	2.56 µM	11.7 µM	2.46 µM	16.4 µM	2.66 µM	9.18 µM	1.87 µM	20.3 µM	0.926 µM	12.8 µM	2.04 µM	12.8 µM	3.17 µM	17.7 µM
C[C@@]1(C(=O)O)CCC[C@]2(C)C1CC[C@@]13CC(=O)[C@@](CO)(CC[C@]12O)C3 (stereo partly specified)	> 100 µM	> 100 µM	> 100 µM	> 100 µM	> 100 µM	> 100 µM	> 100 µM	> 100 µM	> 100 µM	> 100 µM	> 100 µM	> 100 µM	> 100 µM	> 100 µM	> 100 µM	> 100 µM	> 100 µM	> 100 µM	> 100 µM	> 100 µM
CC1(C)C2CCC13C(=O)C1OC3(C2)C2C(=O)c3cc4ccccc4cc3C(=O)C12 (stereo unspecified)	12 µM	> 100 µM	10.7 µM	> 100 µM	6.17 µM	> 100 µM	22.1 µM	49.4 µM	24.9 µM	95.2 µM	5.48 µM	> 100 µM	33.8 µM	> 100 µM	3.85 µM	27.8 µM	5.29 µM	82.4 µM	19.6 µM	> 100 µM
